Experimental data from patent publication US20090209556A1, “SOLUBLE GUANYLATE CYCLASE ACTIVATORS” (priority 2007, published 2009).

Biological target: T1, Human recombinant sGC enzyme (Homo sapiens, UniProt Q02108+Q02153)
T1 construct: purchased Axxora, LLC (San Diego, Calif.)
T1 sequence (Q02153 1-619): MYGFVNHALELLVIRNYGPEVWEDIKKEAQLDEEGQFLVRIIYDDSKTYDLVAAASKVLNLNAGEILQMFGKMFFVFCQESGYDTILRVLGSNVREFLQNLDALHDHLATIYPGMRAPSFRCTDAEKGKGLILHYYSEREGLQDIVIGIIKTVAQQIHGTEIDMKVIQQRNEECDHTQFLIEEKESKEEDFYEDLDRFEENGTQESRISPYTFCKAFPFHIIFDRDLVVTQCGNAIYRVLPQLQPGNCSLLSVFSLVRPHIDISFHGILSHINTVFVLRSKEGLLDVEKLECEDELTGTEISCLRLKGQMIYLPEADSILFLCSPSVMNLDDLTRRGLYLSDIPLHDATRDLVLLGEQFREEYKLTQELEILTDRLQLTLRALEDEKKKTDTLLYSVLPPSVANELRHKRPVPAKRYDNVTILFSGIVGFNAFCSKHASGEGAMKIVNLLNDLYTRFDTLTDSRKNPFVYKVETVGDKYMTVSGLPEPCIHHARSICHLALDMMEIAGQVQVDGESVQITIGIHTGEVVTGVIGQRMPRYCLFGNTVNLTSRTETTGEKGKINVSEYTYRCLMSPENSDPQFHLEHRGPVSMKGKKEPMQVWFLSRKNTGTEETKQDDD
T1 sequence (Q02108 1-690): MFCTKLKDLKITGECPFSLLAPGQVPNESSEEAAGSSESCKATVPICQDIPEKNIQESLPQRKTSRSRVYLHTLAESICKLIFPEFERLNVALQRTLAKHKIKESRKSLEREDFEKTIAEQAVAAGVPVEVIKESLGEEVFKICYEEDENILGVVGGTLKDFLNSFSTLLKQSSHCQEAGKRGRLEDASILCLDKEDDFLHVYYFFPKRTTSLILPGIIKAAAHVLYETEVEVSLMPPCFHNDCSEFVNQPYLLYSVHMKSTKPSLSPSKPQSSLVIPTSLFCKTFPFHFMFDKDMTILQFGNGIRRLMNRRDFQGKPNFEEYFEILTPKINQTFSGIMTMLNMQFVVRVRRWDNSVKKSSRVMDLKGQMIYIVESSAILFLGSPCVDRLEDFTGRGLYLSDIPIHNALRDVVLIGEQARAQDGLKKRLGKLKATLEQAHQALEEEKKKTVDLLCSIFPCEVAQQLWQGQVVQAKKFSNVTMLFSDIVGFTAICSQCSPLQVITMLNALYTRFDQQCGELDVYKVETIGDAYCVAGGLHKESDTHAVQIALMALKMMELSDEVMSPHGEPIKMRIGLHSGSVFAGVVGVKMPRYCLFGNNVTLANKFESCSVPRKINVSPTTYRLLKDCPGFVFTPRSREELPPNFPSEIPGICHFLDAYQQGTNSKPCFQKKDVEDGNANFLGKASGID
Experiment: Measurement of soluble guanylyl cyclase activation (enzyme-based), PCASA cell-free enzymatic assay, cGMP by HTRF
Type: biochemical
Details: purified sGC 0.1 ng, substrate GTP, 1 hr at 37° C.
Procedure: Measurement of Soluble Guanylyl Cyclase ([…]) Activation (Enzyme-Based)
Activities of test compounds against purified sGC were evaluated in PCASA assay which is a cell-free enzymatic assay.
Human recombinant sGC enzyme with greater than 95% purity was obtained from Axxora, LLC (San Diego, Calif.). Compounds were incubated with 0.1 ng of sGC enzyme in presence of its substrate GTP for 1 hr at 37° C. At the end of the incubation period, the reaction was stopped and the amount of cGMP generated was measured by an HTRF-based assay (CisBio, 62GN2PEC), which detects the displacement of a fluorophore-labeled cGMP from its specific antibody.
Inflection point, maximum % of activation, and EC50 were derived based on the plot of compound concentration vs % activation.

EC50: 1.7 nM
SMILES: O=C(O)c1cnn(-c2cccc(-c3cc(Cl)ccc3OCc3ccc([C@H]4CC[C@H](C(F)(F)F)CC4)cc3)n2)c1C(F)(F)F [Example 9]
